Experimental findings from patent US20210352899A1, “COMPOSITIONS COMPRISING PYRIDINE CARBOXYLATE HERBICIDES AND FATTY ACID AND LIPID SYNTHESIS INHIBITOR HERBICIDES” (Corteva Agriscience LLC, priority 2018, published 2021) are described below.

Holding throughout (type): in vivo
In data set [1] the test system is Viola tricolor (wild pansy). Put plainly: Greenhouse postemergence herbicidal effect, VIOTR. The source says: (§1) Seeds of the desired test plant species were planted in a 90:10% v/v (volume/volume) mixture of PRO-MIX® BX (Premier Tech Horticulture, Quakertown, Pa., USA) and PROFILE® GREENS GRADE™ (Profile Products LLC, Buffalo Grove, Ill., USA) planting mixture, which typically has a pH of 5.2 to 6.2 and an organic matter content of at least 50 percent, in plastic pots with a surface area of 103.2 square centimeters (cm^2). In some aspects, to help ensure good germination and healthy plants, a fungicide treatment and/or other chemical or physical treatment was applied. The plants were grown for 7-36 days (d) in a greenhouse with an approximate 14-hour (h) photoperiod which was maintained at about 23° C. during the day and 22° C. during the night. Nutrients and water were added on a regular basis and supplemental lighting was provided with overhead metal halide 1000-Watt lamps as necessary. The plants were employed for testing when they reached the second or third true leaf stage.
(§2) Emulsifiable concentrates of each pyridine carboxylate herbicide (Compound A or Compound B) were prepared at 100 grams acid equivalent per liter (g ae/L). The emulsifiable concentrates also included a safener, cloquintocet-mexyl, at 120 grams active ingredient per liter (g ai/L). […]
(§3) The treated plants and control plants were placed in a greenhouse as described above and watered by sub-irrigation to prevent wash-off of the test compounds. After 20-22 d, the condition of the test plants as compared with that of the control plants was determined visually and scored on a scale of 0 to 100 percent where 0 corresponds to no injury and 100 corresponds to complete kill.

For data set [2], the system named is Digitaria sanguinalis (large crabgrass). The data set is described as follows: Greenhouse postemergence herbicidal effect, DIGSA.
Text: as §1, §2, §3

Data set [3] has as its system Chenopodium album L. (common lambsquarters). Put plainly: Greenhouse postemergence herbicidal effect, CHEAL.
Text: as §1
(§4) Emulsifiable concentrates of each pyridine carboxylate herbicide (Compound A or Compound B) were prepared at 100 grams acid equivalent per liter (g ae/L). The emulsifiable concentrates also included a safener, cloquintocet-mexyl, at 120 grams active ingredient per liter (g ai/L). An aliquot of each emulsifiable concentrate was placed in a 25 mL glass vial and diluted with an aqueous mixture of 1.25% (v/v) ACTIROB® B esterified rapeseed oil (Bayer Crop Science, Research Triangle Park, N.C., USA) or MSO® Concentrate with LECI-TECH® methylated soybean oil (Loveland Products, Loveland, Colo., USA) to obtain concentrated stock solutions at the highest application rate for each herbicide, based upon a 12 milliliter (mL) application volume at a rate of 187 liters per hectare (L/ha). The concentrated stock solutions were further diluted with an aqueous mixture of 1.25% v/v ACTIROB® B or MSO® Concentrate with LECI-TECH® to obtain stock solutions at reduced application rates for each herbicide. Spray solutions of the herbicide combinations (Compound A or Compound B plus the FA/LSI herbicide) were prepared by adding weighed amounts or aliquots of the FA/LSI herbicide to the stock solutions of Compound A or Compound B to form 12-mL spray solutions in two-way combinations.
(§5) The spray solutions were applied to the plant material with an overhead Mandel track sprayer equipped with 8002E nozzles calibrated to deliver 187 L/ha over an application area of 0.503 square meters (m^2) at a spray height of 18 inches (43 centimeters (cm)) above the average plant canopy. Control plants were sprayed in the same manner with the solvent blank. All pyridine carboxylate herbicide (component a) application rates are given as “g ae/ha” and all FA/LSI herbicide (component b) application rates are given as “g ai/ha.”
as §3

The test system of data set [4] is Polygonum convolvulus (wild buckwheat). The data set is described as follows: Greenhouse postemergence herbicidal effect, POLCO.
Text: as §1, §4, §5, §3

The test system of data set [5] is Stellaria media (chickweed). Put plainly: Greenhouse postemergence herbicidal effect, STEME.
Text: as §1, §2, §3

Data set [6] has as its system Cirsium arvense (Canada thistle). Put plainly: Greenhouse postemergence herbicidal effect, CIRAR.
Text: as §1, §4, §5, §3

The next data set has as its system Glycine max (soybean). Put plainly: Greenhouse postemergence herbicidal effect, GLXMA.
Text: as §1, §2, §3

For data set [7], the system named is Echinochloa crus-galli (barnyard grass). Put plainly: Greenhouse postemergence herbicidal effect, ECHCG.
Text: as §1, §2, §3

A further data set deals with Kochia scoparia (kochia). Put plainly: Greenhouse postemergence herbicidal effect, KCHSC.
Text: as §1, §4, §5, §3

Data set [8] deals with Brassica napus (spring rape). The data set is described as follows: Greenhouse postemergence herbicidal effect, BRSNN.
Text: as §1, §4, §5, §3

Data set [9] has as its system Setaria faberi (giant foxtail). Put plainly: Greenhouse postemergence herbicidal effect, SETFA.
Text: as §1, §2, §3

Data set [10] relates to Lolium multiflorum (Italian ryegrass). The data set is described as follows: Greenhouse postemergence herbicidal effect, LOLMU.
Text: as §1, §2, §3

Data set [11] concerns Matricaria chamomilla (wild chamomile). The data set is described as follows: Greenhouse postemergence herbicidal effect, MATCH.
Text: as §1, §4, §5, §3

Data set [12] relates to Salsola kali (Russian thistle). The data set is described as follows: Greenhouse postemergence herbicidal effect, SASKR.
Text: as §1, §4, §5, §3

Data set [13] deals with Sinapis arvensis (wild mustard). Put plainly: Greenhouse postemergence herbicidal effect, SINAR.
Text: as §1, §4, §5, §3

Data set [14] deals with Amaranthus retroflexus (pigweed). Put plainly: Greenhouse postemergence herbicidal effect, AMARE.
Text: as §1, §4, §5, §3

The test system of data set [15] is Hordeum vulgare (spring barley). Put plainly: Greenhouse postemergence crop phytotoxicity, HORVS.
Text: as §1, §4, §5, §3

Data set [16] has as its system Triticum aestivum (spring wheat). Put plainly: Greenhouse postemergence crop phytotoxicity, TRZAS.
Text: as §1, §4, §5, §3

[17] abbreviates: Compound A 0, Prosulfocarb 250 g/ha.
The mark [18] stands for this setting: Compound A 0, Esprocarb 420 g/ha.
Where [19] appears, read: Compound A 7.5 g/ha, Prosulfocarb 0.
[20] abbreviates: Compound A 10 g/ha, Prosulfocarb 0.
[21] abbreviates: Compound A 7.5 g/ha, Benfuresate 0.
Where [22] appears, read: Compound A 7.5 g/ha, Esprocarb 0.
[23] abbreviates: Compound A 7.5 g/ha, Thiobencarb 0.
Setting [24] is: Compound A 10 g/ha, Benfuresate 0.
Setting [25] is: Compound A 10 g/ha, Esprocarb 0.
[26] abbreviates: Compound A 10 g/ha, Thiobencarb 0.
Where [27] appears, read: Compound A 0, Benfuresate 150 g/ha.
The mark [28] stands for this setting: Compound A 0, Thiobencarb 1120 g/ha.

`CCCN(CCC)C(=O)SCc1ccccc1` [Prosulfocarb, prosulfocarb, reference compound]: the “% visual injury, Obs” value in [1] (setting [17]), in data set [2] (setting [17]), in data set [3] (setting [17]), in data set [4] (setting [17]), in data set [5] (setting [17]) and in data set [6] (setting [17]) was 0% each time. In addition, the “% visual injury, Obs” value (with Glycine max (soybean) (setting [17]); in [7] (setting [17]); in the data set on Kochia scoparia (kochia) (setting [17]); in [8] (setting [17]); in data set [9] (setting [17]); in data set [10] (setting [17])) was 0% in each case.
On to `CCN(C(=O)SCc1ccccc1)C(C)C(C)C` (stereo not drawn) [Esprocarb, esprocarb, reference compound], for which the “% visual injury, Obs” value in [11] (setting [18]) worked out at 5%; in [12] (setting [18]), 0%; in data set [3] (setting [18]), 0%; in data set [13] (setting [18]), 0%; in data set [6] (setting [18]), 0%; in the data set with Kochia scoparia (kochia) (setting [18]), 0%. Besides, the “% visual injury, Obs” value in [14] (setting [18]) turned out to be 15%; in data set [8] (setting [18]), 0%.
In the case of `N#CCOC(=O)c1nc(-c2ccc3cc[nH]c3c2F)c(F)c(N)c1Cl` [Compound A, cyanomethyl 4-amino-3-chloro-5-fluoro-6-(7-fluoro-1H-indol-6-yl)pyridine-2-carboxylate], the “% visual injury, Obs” value was determined as 10% in data set [1] (setting [19]); 18% in data set [1] (setting [20]); 45% in [2] (setting [19]); 25% in data set [2] (setting [20]); 13% in data set [11] (setting [21]); 0% in data set [11] (setting [22]). In addition, the “% visual injury, Obs” value in data set [11] (setting [23]) was 13%; in data set [11] (setting [24]), 15%; in data set [11] (setting [25]), 33%; in data set [11] (setting [26]) it was 15%; in [12] (setting [21]) it was 45%; in data set [12] (setting [22]), 38%. Moreover, the “% visual injury, Obs” value in data set [12] (setting [23]) was 45%; in data set [12] (setting [24]), 60%; in [12] (setting [25]), 63%; in data set [12] (setting [26]) it was 60%; in data set [3] (setting [21]), 70%; in [3] (setting [22]), 60%. In addition, the “% visual injury, Obs” value is 97% in data set [3] (setting [19]); 70% in data set [3] (setting [23]); 83% in data set [3] (setting [24]); 90% in data set [3] (setting [25]); 93% in [3] (setting [20]); 83% in [3] (setting [26]). Moreover, the “% visual injury, Obs” value in data set [15] (setting [21]) was determined as 8%; in data set [15] (setting [22]), 0%; in [15] (setting [23]), 8%; in [15] (setting [24]), 0%; in data set [15] (setting [25]), 0%; in data set [15] (setting [26]) it was 0%. The “% visual injury, Obs” value came out at 70% in [4] (setting [21]); 75% in [4] (setting [19]); 70% in data set [4] (setting [23]); 78% in data set [4] (setting [24]); 70% in data set [4] (setting [20]); 78% in data set [4] (setting [26]). Also, the “% visual injury, Obs” value is on record as 88% in data set [13] (setting [21]); 85% in [13] (setting [22]); 88% in data set [13] (setting [23]); 92% in data set [13] (setting [24]); 90% in data set [13] (setting [25]); 92% in data set [13] (setting [26]). The “% visual injury, Obs” value in data set [5] (setting [19]) stood at 100%; in [5] (setting [20]), 97%; in data set [16] (setting [21]), 0%; in data set [16] (setting [22]), 0%; in [16] (setting [23]) it was 0%; in data set [16] (setting [24]), 0%. Besides, the “% visual injury, Obs” value in data set [16] (setting [25]) is 0%; in [16] (setting [26]), 0%; in data set [6] (setting [22]), 10%; in data set [6] (setting [19]) it was 23%; in [6] (setting [25]), 23%; in [6] (setting [20]), 20%. Further, the “% visual injury, Obs” value with Glycine max (soybean) (setting [19]) amounted to 93%; with Glycine max (soybean) (setting [20]), 95%; in [7] (setting [19]), 73%; in data set [7] (setting [20]), 78%; in the data set on Kochia scoparia (kochia) (setting [21]), 50%; in the data set on Kochia scoparia (kochia) (setting [22]), 50%. The “% visual injury, Obs” value in the data set with Kochia scoparia (kochia) (setting [19]) is reported as 60%; in the data set with Kochia scoparia (kochia) (setting [23]) it was 50%; in the data set on Kochia scoparia (kochia) (setting [24]), 58%; with Kochia scoparia (kochia) (setting [25]) it was 55%; in the data set on Kochia scoparia (kochia) (setting [20]), 65%; with Kochia scoparia (kochia) (setting [26]), 58%. Moreover, the “% visual injury, Obs” value in [14] (setting [21]) was 100%; in data set [14] (setting [22]), 70%; in [14] (setting [23]), 100%; in data set [14] (setting [24]), 100%; in data set [14] (setting [25]) it was 98%; in data set [14] (setting [26]), 100%. For the same compound, the “% visual injury, Obs” value in [8] (setting [21]) amounted to 55%; in data set [8] (setting [22]), 55%; in data set [8] (setting [19]), 73%; in [8] (setting [23]) it was 55%; in data set [8] (setting [24]), 60%; in [8] (setting [25]), 70%. In addition, the “% visual injury, Obs” value is recorded as 83% in [8] (setting [20]); 60% in data set [8] (setting [26]); 70% in data set [9] (setting [19]); 70% in data set [9] (setting [20]); 0% in data set [10] (setting [19]); 0% in [10] (setting [20]).
Take `CCS(=O)(=O)Oc1ccc2c(c1)C(C)(C)CO2` [Benfuresate, benfuresate, reference compound]: the “% visual injury, Obs” value (in data set [11] (setting [27]); in [12] (setting [27]); in data set [3] (setting [27]); in data set [4] (setting [27]); in [13] (setting [27]); in the data set with Kochia scoparia (kochia) (setting [27])) was 0% each time. The “% visual injury, Obs” value was 10% in data set [14] (setting [27]) and 5% in data set [8] (setting [27]).
For `CCN(CC)C(=O)SCc1ccc(Cl)cc1` [Thiobencarb, thiobencarb, reference compound], the “% visual injury, Obs” value in data set [11] (setting [28]) is on record as 15%; in [12] (setting [28]), 0%; in data set [3] (setting [28]), 0%; in data set [4] (setting [28]) it was 0%; in [13] (setting [28]), 5%; in the data set on Kochia scoparia (kochia) (setting [28]), 0%. Besides, the “% visual injury, Obs” value in data set [14] (setting [28]) and in [8] (setting [28]) was 10% in each case.
